Laboratory results: patent US20180000085A1, “USE OF PICOLINAMIDE COMPOUNDS WITH FUNGICIDAL ACTIVITY” (DOW AGROSCIENCES LLC, priority 2014, published 2018)

How the values were obtained:
Type in all cases: in vivo
Details in all cases: 100 ppm, 1 Day Protectant
[1] = test system: Erysiphe cichoracearum; experiment: Powdery mildew of cucumber (ERYSCI) disease control
Protocol: All fungicides were evaluated using the aforementioned method for their activity vs. all target diseases, unless stated otherwise. Wheat leaf blotch and brown rust activity were also evaluated using track spray applications, in which case the fungicides were formulated as EC formulations, containing 0.1% Trycol 5941 in the spray solutions. Wheat plants (variety Yuma) were grown from seed in a greenhouse in 50% mineral soil/50% soil-less Metro mix until the first leaf was fully emerged, with 7-10 seedlings per pot. These plants were inoculated with an aqueous spore suspension of Zymoseptoria tritici either prior to or after fungicide treatments. After inoculation the plants were kept in 100% relative humidity (one day in a dark dew chamber followed by two to three days in a lighted dew chamber at 20° C.) to permit spores to germinate and infect the leaf. The plants were then transferred to a greenhouse set at 20° C. for disease to develop. When disease symptoms were fully expressed on the 1st leaves of untreated plants, infection levels were assessed on a scale of 0 to 100 percent disease severity. Percent disease control was calculated using the ratio of disease severity on treated plants relative to untreated plants. […] Plants were inoculated with a spore suspension 24 hr following fungicide treatments. After inoculation the plants remained in the greenhouse set at 20° C. until disease was fully expressed. Fungicide formulation, application and disease assessment on the sprayed leaves followed the procedures as described in the Example A.

[2] = test system: Leptosphaeria nodorum; experiment: Wheat glume blotch (LEPTNO) disease control
Protocol: All fungicides were evaluated using the aforementioned method for their activity vs. all target diseases, unless stated otherwise. Wheat leaf blotch and brown rust activity were also evaluated using track spray applications, in which case the fungicides were formulated as EC formulations, containing 0.1% Trycol 5941 in the spray solutions. Wheat plants (variety Yuma) were grown from seed in a greenhouse in 50% mineral soil/50% soil-less Metro mix until the first leaf was fully emerged, with 7-10 seedlings per pot. These plants were inoculated with an aqueous spore suspension of Zymoseptoria tritici either prior to or after fungicide treatments. After inoculation the plants were kept in 100% relative humidity (one day in a dark dew chamber followed by two to three days in a lighted dew chamber at 20° C.) to permit spores to germinate and infect the leaf. The plants were then transferred to a greenhouse set at 20° C. for disease to develop. When disease symptoms were fully expressed on the 1st leaves of untreated plants, infection levels were assessed on a scale of 0 to 100 percent disease severity. Percent disease control was calculated using the ratio of disease severity on treated plants relative to untreated plants. Example C: Evaluation of Fungicidal Activity: Wheat Glume Blotch (Leptosphaeria nodorum; Bayer Code […]) Wheat plants (variety Yuma) were grown from seed in a greenhouse in 50% mineral soil/50% soil-less Metro mix until the first leaf was fully emerged, with 7-10 seedlings per pot. These plants were inoculated with an aqueous spore suspension of Leptosphaeria nodorum 24 hr after fungicide treatments. After inoculation the plants were kept in 100% relative humidity (one day in a dark dew chamber followed by two days in a lighted dew chamber at 20° C.) to permit spores to germinate and infect the leaf. The plants were then transferred to a greenhouse set at 20° C. for disease to develop. Fungicide formulation, application and disease assessment followed the procedures as described in the Example A.

[3] = test system: Venturia inaequalis; experiment: Apple scab (VENTIN) disease control
Protocol: All fungicides were evaluated using the aforementioned method for their activity vs. all target diseases, unless stated otherwise. Wheat leaf blotch and brown rust activity were also evaluated using track spray applications, in which case the fungicides were formulated as EC formulations, containing 0.1% Trycol 5941 in the spray solutions. Wheat plants (variety Yuma) were grown from seed in a greenhouse in 50% mineral soil/50% soil-less Metro mix until the first leaf was fully emerged, with 7-10 seedlings per pot. These plants were inoculated with an aqueous spore suspension of Zymoseptoria tritici either prior to or after fungicide treatments. After inoculation the plants were kept in 100% relative humidity (one day in a dark dew chamber followed by two to three days in a lighted dew chamber at 20° C.) to permit spores to germinate and infect the leaf. The plants were then transferred to a greenhouse set at 20° C. for disease to develop. When disease symptoms were fully expressed on the 1st leaves of untreated plants, infection levels were assessed on a scale of 0 to 100 percent disease severity. Percent disease control was calculated using the ratio of disease severity on treated plants relative to untreated plants. […] Seedlings with two expanding young leaves at the top (older leaves at bottom of the plants were trimmed) were used in the test. Plants were inoculated with a spore suspension of Venturia inaequalis 24 hr after fungicide treatment and kept in a 22° C. dew chamber with 100% relative humidity for 48 hr, and then moved to a greenhouse set at 20° C. for disease to develop. Fungicide formulation, application and disease assessment on the sprayed leaves followed the procedures as described in the Example A.

[4] = test system: Rhyncosporium secalis; experiment: Barley scald (RHYNSE) disease control
Protocol: All fungicides were evaluated using the aforementioned method for their activity vs. all target diseases, unless stated otherwise. Wheat leaf blotch and brown rust activity were also evaluated using track spray applications, in which case the fungicides were formulated as EC formulations, containing 0.1% Trycol 5941 in the spray solutions. Wheat plants (variety Yuma) were grown from seed in a greenhouse in 50% mineral soil/50% soil-less Metro mix until the first leaf was fully emerged, with 7-10 seedlings per pot. These plants were inoculated with an aqueous spore suspension of Zymoseptoria tritici either prior to or after fungicide treatments. After inoculation the plants were kept in 100% relative humidity (one day in a dark dew chamber followed by two to three days in a lighted dew chamber at 20° C.) to permit spores to germinate and infect the leaf. The plants were then transferred to a greenhouse set at 20° C. for disease to develop. When disease symptoms were fully expressed on the 1st leaves of untreated plants, infection levels were assessed on a scale of 0 to 100 percent disease severity. Percent disease control was calculated using the ratio of disease severity on treated plants relative to untreated plants. Example H: Evaluation of Fungicidal Activity: Barley Scald (Rhyncosporium secalis; Bayer Code […]) Barley seedlings (variety Harrington) were propagated in soil-less Metro mix, with each pot having 8 to 12 plants, and used in the test when first leaf was fully emerged. Test plants were inoculated by an aqueous spore suspension of Rhyncosporium secalis 24 hr after fungicide treatments. After inoculation the plants were kept in a dew room at 22° C. with 100% relative humidity for 48 hr. The plants were then transferred to a greenhouse set at 20° C. for disease to develop. Fungicide formulation, application and disease assessment on the sprayed leaves followed the procedures as described in the Example A.

SMILES: CCC(CC)[C@@H](Oc1ccccc1)[C@H](C)OC(=O)[C@H](C)NC(=O)c1nccc(OC)c1OC(C)=O [Cmpd 479]
- ERYSCI disease control, 1DP [1]: A (> 80)
- LEPTNO disease control, 1DP [2]: A (> 80)
- VENTIN disease control, 1DP [3]: A (> 80)
- RHYNSE disease control, 1DP [4]: B (≤ 80)
